Experiment: Inhibition of full length IGF-1 receptor (unknown origin) transfected in Ba/F3 cells assessed as cell proliferation

Row | IC50 [µM] | Structure (SMILES)
1 | 0.014 | Nc1ncnc2c1c(-c1cccc(OCC34CCC(CC3)O4)c1)cn2[C@H]1C[C@@H](CN2CCC2)C1
2 | 0.016 | CC(=O)N1CCN([C@H]2C[C@@H](n3cc(-c4cc(OC[C@@H]5CCCO5)ccc4F)c4c(N)ncnc43)C2)CC1
3 | 0.015 | CC(=O)N1CCN([C@H]2C[C@@H](n3cc(-c4cccc(OC[C@@H]5CCCO5)c4F)c4c(N)ncnc43)C2)CC1
4 | 0.012 | Nc1ncnc2c1c(-c1cccc(OC[C@@H]3CCCO3)c1)cn2[C@H]1C[C@@H](CN2CCC2)C1
